Assay results as given in US8003812B2, “C10 cyclopentyl ester substituted taxanes” (priority 2004, dated 2011).
Where “and” joins values, the source holds several entries; their conditions need not be identical. Equal entries are not always repeated.

Legend:
[1] = tested on: HCT 116 human colon carcinoma; assay: In vitro cytotoxicity, cell colony formation assay, HCT116; type: cell-based; conditions: 72 h drug incubation
Experimental: The cells were incubated in a CO2 incubator at 37° C. for 5 h for attachment to the bottom of Petri dishes. The compound of the present invention was made up fresh in medium at ten times the final concentration, and then 0.3 mL of this stock solution was added to the 2.7 mL of medium in the dish. The cells were then incubated with drugs for 72 h at 37° C. At the end of incubation the drug-containing media were decanted, the dishes were rinsed with 4 mL of Hank's Balance Salt Solution (HBSS), 5 mL of fresh medium was added, and the dishes were returned to the incubator for colony formation. The cell colonies were counted using a colony counter after incubation for 7 days. Cell survival was calculated and the values of IC50 (the drug concentration producing 50% inhibition of colony formation) were determined for each tested compound.

[2] = tested on: DLD-1 (resistant human colon carcinoma); assay: In vitro cytotoxicity, MTT assay, DLD-1; type: cell-based
[3] = tested on: Sprague-Dawley rats; assay: In vivo toxicity assessment in rats, intravenous
Experimental: (§1) Toxicity was assessed in 250-300g Sprague-Dawley rats and three rats were used per dose group. Three dose groups of the test compound, (i.e., 3 mg/kg, 9 mg/kg and 12 mg/kg for intravenous administration; 15 mg/kg, 30 mg/kg and 40 mg/kg) and 1 control group constituted a study. Animals were observed and clinical chemistry data collected at days 4 and 10. Rats were euthanized on day 11 and the nerves were excised and fixed upon euthanization for further examination.
(§2) Each rat is scored as described below and a final toxicity score that incorporates all parameters is assigned. A dead rat is assigned a score of zero. Most of the parameters contribute a positive value towards a total possible score of 130. For body weight, white blood cell, and platelet decreases, recovery is considered. […] The total score is divided by 13 to put it on a scale from 0 to 10.

[4] = tested on: Sprague-Dawley rats; assay: In vivo toxicity assessment in rats, oral; design: species or system rat; key to Neu Tox score: N (0); −10: Y (1-4); key to PTL R (Recovery) score / L/W Dia score / B/M Dia score / BW R (Recovery) score / WBC R (Recovery) score: −5: N; 0: Y; conditions: for Total Score AVE: average of 3 rats; for Total Score: per rat, maximum 130; for ALT score / AST score / B/M Dia score / BW score / L/W Dia score / Neu Tox score / WBC R (Recovery) score / WBC score / BUN score / BW R (Recovery) score / PTL R (Recovery) score / PTL score: score per rat
Experimental: as §1, §2

[5] = IV, second IV 9091 line (two IV dosage regimens)
[6] = oral, High Dose 40 mg/kg, 40 mg/kg
[7] = oral, Low Dose 15 mg/kg, 15 mg/kg

Structure (SMILES): CC(=O)OC12COC1CC(O)C1(C)C(=O)C(OC(=O)C3CCCC3)C3=C(C)C(OC(=O)C(O)C(NC(=O)OC(C)C)c4cccs4)CC(O)(C(OC(=O)c4ccccc4)C21)C3(C)C (stereo not shown) [Compound 9091]
- IC50 [1]: 0.6 nM and 0.63 nM
- IC50 [2]: 1.5 nM
- Tox Score, Dose 3 mg ([3]; IV, scale 0 to 10): 9
- Tox Score, Dose 3 mg [3, 5]: 9.5
- Tox Score, Dose 9 mg ([3]; IV, scale 0 to 10): 7.1
- Tox Score, Dose 9 mg [3, 5]: 8.1
- Tox Score, Dose 12 mg ([3]; IV, scale 0 to 10): 7.8
- Tox Score, Dose 12 mg [3, 5]: 6.8
- Tox Score, Weighted Avg ([3]; IV, Wt Avg = (Σ(dose × grp score))/24): 7.7
- Tox Score, Average ([3]; IV, average of 3 dose groups): 7.9
- Tox Score, Average [3, 5]: 8.1
- Tox Score, Weighted Avg [3, 5]: 7.6
- Rat tox score IV (second value in cell) ([3]; IV, second of two values printed for 9091 (two IV regimens)): 8, 8
- Rat tox score IV ([3]; IV, summary score, scale 0 to 10): 8, 8
- toxicity profile in rats compared with congeners ([3]; administered intravenously): best toxicity profile
- Tox Score, Dose 15 mg ([4]; Oral, dose 15 mg, scale 0 to 10): 7.4
- Tox Score, Dose 30 mg ([4]; Oral, dose 30 mg, scale 0 to 10): 6.7
- Tox Score, Dose 40 mg ([4]; Oral, dose 40 mg, scale 0 to 10): 4.6
- Tox Score, Average ([4]; Oral, average of 3 dose groups): 6.2
- Tox Score, Weighted Avg ([4]; Oral, weighted by dose): 5.8
- Rat tox score PO ([4]; PO, summary score, scale 0 to 10): 6
- toxicity profile in the oral rat studies compared with congener ([4]; oral): better toxicity profile
- Total Score AVE ([4]; oral, High Dose 40 mg/kg): 60
- Total Score [4, 6]: 55 and 65 and 60
- Group score = average of 3 rats/13 ([4]; oral, High Dose 40 mg/kg, scale 0 to 10): 4.62
- ALT score ([4]; oral, High Dose 40 mg/kg): 20 (<1.25Xcont)
- AST score ([4]; oral, High Dose 40 mg/kg): 20 (<1.25Xcont)
- B/M Dia score ([4]; oral, High Dose 40 mg/kg): 0
- BW score ([4]; oral, High Dose 40 mg/kg): 0 (≧20%)
- L/W Dia score ([4]; oral, High Dose 40 mg/kg): 0
- Neu Tox score ([4]; oral, High Dose 40 mg/kg): −10
- WBC R (Recovery) score ([4]; oral, High Dose 40 mg/kg): 0
- WBC score ([4]; oral, High Dose 40 mg/kg): 0 (≧50%)
- BUN score [4, 6]: 10 (≧1.25Xcont) and 20 (<1.25Xcont) (2×)
- BW R (Recovery) score [4, 6]: 0 and −5 (2×)
- PTL R (Recovery) score [4, 6]: −5 and 0 (2×)
- PTL score [4, 6]: 20 (<25%) (2×) and 5 (≧50%)
- Total Score AVE ([4]; oral, Low Dose 15 mg/kg): 96.7
- Total Score [4, 7]: 110 and 85 and 95
- Group score = average of 3 rats/13 ([4]; oral, Low Dose 15 mg/kg, scale 0 to 10): 7.44
- ALT score ([4]; oral, Low Dose 15 mg/kg): 20 (<1.25Xcont)
- AST score ([4]; oral, Low Dose 15 mg/kg): 20 (<1.25Xcont)
- B/M Dia score ([4]; oral, Low Dose 15 mg/kg): 5
- BUN score ([4]; oral, Low Dose 15 mg/kg): 20 (<1.25Xcont)
- BW R (Recovery) score ([4]; oral, Low Dose 15 mg/kg): 0
- L/W Dia score ([4]; oral, Low Dose 15 mg/kg): 0
- Neu Tox score ([4]; oral, Low Dose 15 mg/kg): −10
- PTL R (Recovery) score ([4]; oral, Low Dose 15 mg/kg): 0
- WBC R (Recovery) score ([4]; oral, Low Dose 15 mg/kg): 0
- BW score [4, 7]: 20 (<10%) (2×) and 10 (≧10%)
- PTL score [4, 7]: 20 (<25%) (2×) and 10 (≧25%)
- WBC score [4, 7]: 5 (≧25%) and 0 (≧50%) (2×)
- Total Score AVE ([4]; oral, Mid Dose 30 mg/kg): 86.7
- Total Score ([4]; oral, Mid Dose 30 mg/kg, 30 mg/kg): 85 and 95 and 80
- Group score = average of 3 rats/13 ([4]; oral, Mid Dose 30 mg/kg, scale 0 to 10): 6.67
- ALT score ([4]; oral, Mid Dose 30 mg/kg): 20 (<1.25Xcont)
- AST score ([4]; oral, Mid Dose 30 mg/kg): 20 (<1.25Xcont)
- B/M Dia score ([4]; oral, Mid Dose 30 mg/kg): 0
- BUN score ([4]; oral, Mid Dose 30 mg/kg): 20 (<1.25Xcont)
- BW R (Recovery) score ([4]; oral, Mid Dose 30 mg/kg): 0
- L/W Dia score ([4]; oral, Mid Dose 30 mg/kg): 0
